Experiments:
hPPARgamma = molecular target: T1, hPPARgamma (Homo sapiens, UniProt P37231); test: PPAR activation: Gal4-hPPARγ chimera luciferase transactivation in COS-7 cells, Method 2; type: cell-based; conditions: COS-7, 24 h, Method 2
T1 construct: expressed in transfected cells; host or cells: COS-7 (monkey kidney fibroblasts)
T1 sequence (P37231 238-503 limits assumed): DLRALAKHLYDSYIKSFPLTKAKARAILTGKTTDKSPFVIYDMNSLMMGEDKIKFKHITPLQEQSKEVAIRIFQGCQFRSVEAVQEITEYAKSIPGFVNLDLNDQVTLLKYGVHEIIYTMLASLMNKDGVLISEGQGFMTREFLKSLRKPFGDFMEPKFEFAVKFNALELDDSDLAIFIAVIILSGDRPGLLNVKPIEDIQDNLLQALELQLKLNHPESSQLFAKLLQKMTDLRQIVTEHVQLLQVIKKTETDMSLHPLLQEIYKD
How it was run: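 Transactivation by a Gal4 DNA-binding domain–hPPARγ ligand-binding domain chimera with a Gal4(RE)-luciferase reporter, transfected into COS-7 cells (plasmid ratio 1/10).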

[1] = tested on: target genes of the PPARs; test: Expression of target genes of the PPARs in liver and skeletal muscle of the E2/E2 mouse, quantitative RT-PCR; type: in vivo; conditions: 50 mpk, 13 days
Source text: The PPARα agonistic properties of the molecules according to the invention previously measured in vitro must be reflected at the hepatic level in a modulation of the expression of the target genes directly under the control of the PPARα receptor. The genes that were investigated in this experiment are the genes coding for PDK4 (pyruvate dehydrogenase kinase isoform 4, enzyme of carbohydrate metabolism), for AcoX1 (the AcoX1 present in the mouse corresponds to the gene of ACO in humans (acyl co-enzyme A oxidase, a key enzyme in the mechanism of the β-oxidation of fatty acids)) and for Apo CIII (an apolipoprotein involved in lipid metabolism).
The PPARδ agonistic properties of the molecules according to the invention previously measured in vitro should also be reflected, at the level of the skeletal muscle, in overexpression of the target genes directly under the control of the PPARδ receptor. The genes that were investigated in this experiment are the genes coding for PDK4 (pyruvate dehydrogenase kinase isoform 4, enzyme of carbohydrate metabolism) and UCP2 (uncoupling protein 2, mitochondrial transporter involved in thermoregulation).
Apo E2/E2 transgenic mice were kept under a cycle of light and darkness of 12/12 hours at a constant temperature of 20±3° C. After acclimation for one week, the mice were weighed and put into groups of 6 animals selected so that the distribution of their body weights and of their plasma lipid levels determined for the first time before the experiment are uniform. The test compounds were suspended in carboxymethylcellulose (Sigma C4888) and administered by intragastric force feeding, at a rate of once per day for 13 days at the chosen dose. The animals had free access to water and to food (standard diet). At the end of the experiment, the animals were anesthetized after fasting for 4 hours, a blood sample was taken using anticoagulant (EDTA), then the mice were weighed and euthanased. The plasma was separated by centrifugation at 3000 rev/min for 20 minutes, and the samples were stored at +4° C.
Samples of liver and of skeletal muscle tissue were taken and frozen immediately in liquid nitrogen and then stored at −80° C. for later analyses.
The total RNA was extracted from fragments of liver using the NucleoSpin® 96 RNA kit (Macherey Nagel, Hoerdt, France) following the manufacturer's instructions. […]
1 μg of total RNA (quantified by spectrophotometry) was then reverse-transcribed to complementary DNA by reaction for 1 hour at 37° C. in a total volume of 30 μl containing buffer 1× (Invitrogen), 1.5 mM of DTT, 0.18 mM of dNTPs (Promega), 200 ng of pdN6 (Amersham), 30 U of RNase inhibitor (Promega) and 1 μl of MMLV-RT (Invitrogen).
The quantitative PCR experiments were carried out using the MyiQ Single-Color Real-Time PCR Detection System (Biorad, Marnes-la-Coquette, France) and were performed using the iQ SYBR Green Supermix kit following the supplier's recommendations, in 96-well plates, on 5 μl of diluted reverse transcription reaction mixture with a hybridization temperature of 60° C. […]
In both cases (hepatic tissue and skeletal muscle tissue), the amount of fluorescence emitted is directly proportional to the amount of complementary DNA present at the start of the reaction and amplified during PCR. […] The relative expression levels of each target are thus determined using the efficacy curves obtained with the points in the range. […]

SMILES	Emax (hPPARgamma; maximum percentage response relative to the reference rosiglitazone, read-out: hPPARgamma % max) [%]	EC50 (hPPARgamma; 1% Ultroser, read-out: hPPARgamma EC50) [nM]	hepatic expression of the gene coding for AcoX1 ([1]; liver)	hepatic expression of the gene coding for ApoCIII ([1]; liver)	hepatic expression of the gene coding for PDK4 ([1]; liver)	expression of the gene coding for PDK4 in the skeletal muscle ([1]; skeletal muscle)	expression of the gene coding for UCP2 in the skeletal muscle ([1]; skeletal muscle)
CC(C)(Oc1ccc(CCC(OCc2ccccc2)c2ccc(-c3ccc(C(F)(F)F)cc3)s2)c(Cl)c1Cl)C(=O)O (stereo not shown) [Compound 7, 2-(4-(3-(benzyloxy)-3-(5-(4-(trifluoromethyl)phenyl)thien-2-yl)propyl)-2,3-dichlorophenoxy)-2-methylpropanoic acid]	40	1700	–	–	–	–	–
CC(C)(Oc1ccc(CCC(=O)c2ccc(-c3ccc(C(F)(F)F)cc3)s2)c(Cl)c1Cl)C(=O)O [Compound 2, 2-(2,3-dichloro-4-(3-oxo-3-(5-(4-(trifluoromethyl)phenyl)thien-2-yl)propyl)phenoxy)-2-methylpropanoic acid]	–	–	significant increase	decrease	significant increase	significant increase	significant increase

From patent publication US8088819B2, “Derivatives of substituted 3-phenyl-1-(phenylthienyl)propan-1-ones and of 3-phenyl-1-(phenylfuranyl) propan-1-ones, preparation and use” (priority 2006, dated 2012)
